The experiment concerns the target T1, ALAS2 (apoALAS2) (Homo sapiens, UniProt P22557).
T1 sequence (P22557 50-587): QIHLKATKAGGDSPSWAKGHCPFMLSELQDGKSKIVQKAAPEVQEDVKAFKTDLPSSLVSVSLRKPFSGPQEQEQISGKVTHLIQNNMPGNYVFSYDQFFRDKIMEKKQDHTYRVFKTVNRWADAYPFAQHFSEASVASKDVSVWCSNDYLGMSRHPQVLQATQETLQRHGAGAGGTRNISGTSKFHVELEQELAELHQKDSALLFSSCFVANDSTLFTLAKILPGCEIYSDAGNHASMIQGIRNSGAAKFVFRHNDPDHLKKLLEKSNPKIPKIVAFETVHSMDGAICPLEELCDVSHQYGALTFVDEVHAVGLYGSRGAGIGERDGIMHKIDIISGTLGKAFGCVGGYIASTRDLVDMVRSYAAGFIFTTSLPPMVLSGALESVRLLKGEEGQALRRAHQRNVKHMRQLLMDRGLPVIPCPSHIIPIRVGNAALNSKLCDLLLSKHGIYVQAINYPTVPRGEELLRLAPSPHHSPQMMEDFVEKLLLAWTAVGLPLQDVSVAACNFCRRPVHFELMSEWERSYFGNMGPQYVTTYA
Put plainly: PLP reactivation of apoenzyme, NAD-coupled ALAS assay. The experiment is classed as biochemical. The settings on record: apoALAS2 5 µM, PLP 50 µM, pH 7.6, 30 °C, 5 mM MgCl2, 130 mM KCl, 0.75 mg/ml BSA; covalent.

For `Cc1ncc(COP(=O)(O)O)c(C=O)c1O` [pyridoxal phosphate], the “PLP reactivation of apoenzyme, NAD-coupled ALAS assay” value is “apoALAS2 activation by PLP in vitro”.

Values taken from PMC4467794 (Cell, 2015).
